Measured values reported in patent US11174250B2, “Substituted carboxamides as inhibitors of WDR5 protein-protein binding” (PROPELLON THERAPEUTICS INC., priority 2016, dated 2021).
Read-outs that look alike come from different tables or passages of the source.

Assays:
[1] = biological target: WDR5 protein (Homo sapiens (Human), UniProt P61964); test: Surface Plasmon Resonance (SPR) assay; format: binding; conditions: for residence time: τ=1/koff, read-out: Residence Time (t, min)
[2] = biological target: MLL1-WRAD2 complex (Homo sapiens (Human), UniProt P61964); test: MLL1-WRAD2 enzyme assay (in vitro methyl transferase assay); format: biochemical
Procedure: Reaction was initiated with 1 μM 3H-SAM and incubated for 1 hour at 30° C. Reaction mixture was transferred to P81 filter-paper and washed with PBS before detection.

[3] = system: MV4-11 cells; test: Cell proliferation assay (ATPlite); format: cell-based; conditions: Homo sapiens, MV4-11, 120 h; MV-411 cells, five days; read-out: In vitro whole cell potency in MV-411 cells, (IC50)
Procedure: MV4-11 cells were seeded into a 96-well plate at 1,000 cells/well in 150 μl medium (Alpha-MEM containing 10% FBS, 100 μg/ml Normocin, and 50 μg/ml Gentamycin, Invitrogen). A HP D300 digital dispenser was used to dose cells with DMSO or test compounds across a 10-point range of concentrations (high dose of 10 μM), and cultures were grown in a humidified 5% CO2 incubator at 37° C. After five days, plates were removed from incubator and equilibrated to room temperature. An equal volume of ATPlite assay reagent was added to each well, and samples were processed according to manufacturer's instructions (Perkin Elmer). Luminescent signal was measured using an Envision plate reader equipped with a US-Luminescence detector.

[4] = SPR, Table 1, read-out: WDR5 binding affinity (KD)
[5] = SPR, Table 2, read-out: WDR5 binding affinity SPR (KD)
[6] = MLL1-WRAD2 assay, read-out: In vitro MLL1 activity (IC50)

| Structure (SMILES) | Kd [1, 4] | Kd [1, 5] | residence time ([1]; SPR) | IC50 [2, 6] | IC50 [3] | τ ([1]; Table 4, effect of Fluoro-substitution) | Kd ([1]; Table 4, effect of Fluoro-substitution, read-out: KD (SPR)) | IC50 ([2]; Table 4, effect of Fluoro-substitution, read-out: IC50 (MLL1)) |
| --- | --- | --- | --- | --- | --- | --- | --- | --- |
| COCOc1cc(F)c(-c2ccc(N3CCN(C)CC3)c(NC(=O)c3c[nH]c(=O)cc3C(F)(F)F)c2)cc1C(=O)NC(C)(C)CC(C)(C)C [Example 3, N-(2′-fluoro-4′-(methoxymethoxy)-4-(4-methylpiperazin-1-yl)-5′-((2,4,4-trimethylpentan-2-yl)carbamoyl)-[1,1′-biphenyl]-3-yl)-6-oxo-4-(trifluoromethyl)-1,6-dihydropyridine-3-carboxamide] | 11 nM | 11 nM | 6.4 min | 966 nM | 3180 nM | – | – | – |
| CN1CCN(c2ccc(-c3ccc(OCC4CC4)nc3F)cc2NC(=O)c2c[nH]c(=O)cc2C(F)(F)F)CC1 [Example 16, N-(5-(6-(cyclopropylmethoxy)-2-fluoropyridin-3-yl)-2-(4-methylpiperazin-1-yl)phenyl)-6-oxo-4-(trifluoromethyl)-1,6-dihydropyridine-3-carboxamide] | 10 nM | 10 nM | 5.25 min | 1470 nM | 5970 nM | – | – | – |
| CC1CN(c2ccc(-c3cc(CN4CCOCC4)ccc3F)cc2NC(=O)c2c[nH]c(=O)cc2C(F)(F)F)CCN1C (centres unmarked) [Example 26, N-(4-(3,4-dimethylpiperazin-1-yl)-2′-fluoro-5′-(morpholinomethyl)-[1,1′-biphenyl]-3-yl)-6-hydroxy-4-(trifluoromethyl)nicotinamide] | 9 nM | 9 nM | 3.07 min | – | 491 nM | – | – | – |
| CN1CCN(c2ccc(-c3ccnc(N4CCOCC4)c3F)cc2NC(=O)c2c[nH]c(=O)cc2C(F)(F)F)CC1 [Example 39, N-(5-(3-fluoro-2-morpholinopyridin-4-yl)-2-(4-methylpiperazin-1-yl)phenyl)-6-oxo-4-(trifluoromethyl)-1,6-dihydropyridine-3-carboxamide] | 28 nM | 28 nM | 1.46 min | 2510 nM | > 10000 nM | – | – | – |
| C[C@@H]1CN(c2ccc(-c3cc(CNC4CCCCC4)ccc3F)cc2NC(=O)c2c[nH]c(=O)cc2C(F)(F)F)C[C@H](C)N1C [Example 45, N-(5′-((cyclohexylamino)methyl)-2′-fluoro-4-((3S,5R)-3,4,5-trimethylpiperazin-1-yl)-[1,1′-biphenyl]-3-yl)-6-oxo-4-(trifluoromethyl)-1,6-dihydropyridine-3-carboxamide] | 2 nM | 2 nM | 31.9 min | 514 nM | 74 nM | – | – | – |
| CN1CCN(c2ccc(-c3cc(CN4CCOCC4)ccc3F)c(F)c2NC(=O)c2c[nH]c(=O)cc2C(F)(F)F)CC1 [Example 99, N-(2,2′-difluoro-4-(4-methylpiperazin-1-yl)-5′-(morpholinomethyl)-[1,1′-biphenyl]-3-yl)-6-oxo-4-(trifluoromethyl)-1,6-dihydropyridine-3-carboxamide] | 14 nM | 14 nM | 2.2 min | 3980 nM | – | – | – | – |
| C[C@@H]1CN(c2ccc(-c3c(F)ccc(CNC4CCCCC4)c3F)cc2NC(=O)c2c[nH]c(=O)cc2C(F)(F)F)C[C@H](C)N1C [Example 114, N-(3′-((cyclohexylamino)methyl)-2′,6′-difluoro-4-((3S,5R)-3,4,5-trimethylpiperazin-1-yl)-[1,1′-biphenyl]-3-yl)-6-oxo-4-(trifluoromethyl)-1,6-dihydropyridine-3-carboxamide] | 13 nM | 13 nM | 4.3 min | 11100 nM | – | – | – | – |
| CN1CCN(c2ccc(-c3cc(CN4CCC(F)CC4)ccc3F)cc2NC(=O)c2c[nH]c(=O)cc2C(F)(F)F)CC1 [drawing 287] | – | – | – | – | – | 5.44 min | 11 nM | 592 nM |

Continued by falling Kd [1, 4], values first:

| Kd [1, 4] | Kd [1, 5] | residence time ([1]; SPR) | IC50 [2, 6] | IC50 [3] | τ ([1]; Table 4, effect of Fluoro-substitution) | Kd ([1]; Table 4, effect of Fluoro-substitution, read-out: KD (SPR)) | IC50 ([2]; Table 4, effect of Fluoro-substitution, read-out: IC50 (MLL1)) | Structure (SMILES) |
| --- | --- | --- | --- | --- | --- | --- | --- | --- |
| 9 nM | 9 nM | 4.04 min | 2250 nM | 2260 nM | – | – | – | CN1CCN(c2ccc(-c3cc(OCC4CC4)ncc3F)cc2NC(=O)c2c[nH]c(=O)cc2C(F)(F)F)CC1 [Example 15, N-(5-(2-(cyclopropylmethoxy)-5-fluoropyridin-4-yl)-2-(4-methylpiperazin-1-yl)phenyl)-6-oxo-4-(trifluoromethyl)-1,6-dihydropyridine-3-carboxamide] |
| 9 nM | 9 nM | 5.76 min | 1740 nM | 1280 nM | – | – | – | CN1CCN(c2ccc(-c3cc(OC4CCOCC4)ncc3F)cc2NC(=O)c2c[nH]c(=O)cc2C(F)(F)F)CC1 [Example 31, N-(5-(5-fluoro-2-((tetrahydro-2H-pyran-4-yl)oxy)pyridin-4-yl)-2-(4-methylpiperazin-1-yl)phenyl)-6-oxo-4-(trifluoromethyl)-1,6-dihydropyridine-3-carboxamide] |
| 8.2 nM | 8 nM | 5.5 min | 2100 nM | – | – | – | – | C[C@@H]1CN(c2ccc(-c3cc(CN(C)C4COC4)c(F)cc3F)cc2NC(=O)c2c[nH]c(=O)cc2C(F)(F)F)C[C@H](C)N1C [Example 113, N-(2′,4′-difluoro-5′-((methyl(oxetan-3-yl)amino)methyl)-4-((3S,5R)-3,4,5-trimethylpiperazin-1-yl)-[1,1′-biphenyl]-3-yl)-6-oxo-4-(trifluoromethyl)-1,6-dihydropyridine-3-carboxamide] |
| 8 nM | 8 nM | 5.84 min | 529 nM | 737 nM | – | – | – | C[C@@H]1CN(c2ccc(-c3cc(CN4CCOCC4)ccc3F)cc2NC(=O)c2c[nH]c(=O)cc2C(F)(F)F)C[C@H](C)N1C [Example 27, N-(2′-fluoro-5′-(morpholinomethyl)-4-((3S,5R)-3,4,5-trimethylpiperazin-1-yl)-[1,1′-biphenyl]-3-yl)-6-oxo-4-(trifluoromethyl)-1,6-dihydropyridine-3-carboxamide] |
| 8 nM | 8 nM | 3.42 min | 3990 nM | > 10000 nM | – | – | – | CN1CCN(c2ccc(-c3ccc(CN4CCOCC4)cc3F)cc2NC(=O)c2c[nH]c(=O)cc2C(F)(F)F)CC1 [Example 38, N-(2′-fluoro-4-(4-methylpiperazin-1-yl)-4′-(morpholinomethyl)-[1,1′-biphenyl]-3-yl)-6-oxo-4-(trifluoromethyl)-1,6-dihydropyridine-3-carboxamide] |
| 6 nM | 6 nM | 9.48 min | 332 nM | 680 nM | – | – | – | CN1CCN(c2ccc(-c3cc(C(=O)NC4CCCCC4)ccc3F)cc2NC(=O)c2c[nH]c(=O)cc2C(F)(F)F)CC1 [Example 32, N-(5′-(cyclohexylcarbamoyl)-2′-fluoro-4-(4-methylpiperazin-1-yl)-[1,1′-biphenyl]-3-yl)-6-oxo-4-(trifluoromethyl)-1,6-dihydropyridine-3-carboxamide] |
| 5 nM | 6 nM | 4.38 min | 1300 nM | 2910 nM | – | – | – | CN1CCN(c2ccc(-c3cc(CNC4CCOCC4)ccc3F)cc2NC(=O)c2c[nH]c(=O)cc2C(F)(F)F)CC1 [Example 37, N-(2′-fluoro-4-(4-methylpiperazin-1-yl)-5′-(((tetrahydro-2H-pyran-4-yl)amino)methyl)-[,1′-biphenyl]-3-yl)-6-oxo-4-(trifluoromethyl)-1,6-dihydropyridine-3-carboxamide] |
| 4.2 nM | 4 nM | 7.2 min | 607 nM | – | – | – | – | CN1CCN(c2ccc(-c3cc(C(=O)N(C)C4CCCCC4)ccc3F)cc2NC(=O)c2c[nH]c(=O)cc2C(F)(F)F)CC1 [Example 110, N-(5′-(cyclohexyl(methyl)carbamoyl)-2′-fluoro-4-(4-methylpiperazin-1-yl)-[1,1′-biphenyl]-3-yl)-6-oxo-4-(trifluoromethyl)-1,6-dihydropyridine-3-carboxamide] |
| 4 nM | 4 nM | 7.88 min | 216 nM | 410 nM | – | – | – | CN1CCN(c2ccc(-c3cc(CNC4CCCCC4)ccc3F)cc2NC(=O)c2c[nH]c(=O)cc2C(F)(F)F)CC1 [Example 7, N-(5′-((cyclohexylamino)methyl)-2′-fluoro-4-(4-methylpiperazin-1-yl)-[1,1′-biphenyl]-3-yl)-6-oxo-4-(trifluoromethyl)-1,6-dihydropyridine-3-carboxamide] |
| 2.4 nM | 24 nM | 34 min | 203 nM | – | – | – | – | C[C@@H]1CN(c2ccc(-c3cc(C(=O)N(C)C4CCCCC4)ccc3F)cc2NC(=O)c2c[nH]c(=O)cc2C(F)(F)F)C[C@H](C)N1C [Example 111, N-(5′-(cyclohexyl(methyl)carbamoyl)-2′-fluoro-4-((3S,5R)-3,4,5-trimethylpiperazin-1-yl)-[1,1′-biphenyl]-3-yl)-6-oxo-4-(trifluoromethyl)-1,6-dihydropyridine-3-carboxamide] |
| 1.7 nM | 1.7 nM | 20.6 min | 293 nM | – | – | – | – | CC1CN(c2ccc(-c3cc(C(=O)NC4CCCCC4)ccc3F)cc2NC(=O)c2c[nH]c(=O)cc2C(F)(F)F)CC(C)N1C (centres unmarked) [Example 124, N-(5′-(cyclohexylcarbamoyl)-2′-fluoro-4-(3,4,5-trimethylpiperazin-1-yl)-[1,1′-biphenyl]-3-yl)-6-oxo-4-(trifluoromethyl)-1,6-dihydropyridine-3-carboxamide] |
